Among the data in patent US20170008921A1, “C-3 NOVEL TRITERPENONE WITH C-28 REVERSE AMIDE DERIVATIVES AS HIV INHIBITORS” (HETERO RESEARCH FOUNDATION, priority 2015, published 2017) are AUC(0-t), Cmax and viability values, retold here.

A short description of data set [1]: Single dose oral pharmacokinetic study. It counts as in vivo. The conditions noted are these: mouse, Mice oral PK @30 mg/kg, plasma, vehicle 10% Solutol+20% PEG; for AUC(0-t): read-out: AUC0-t; for Cmax: read-out: Cmax. The procedure: The test item was administered through oral route to animals (rat/mice) at 30 mg/kg dose in a suitable vehicle (10% Solutol+20% PEG) at 10 ml/kg dose volume. Blood samples (˜50 μL at each time point) were collected from retro-orbital plexus using K3 EDTA as anticoagulant in eppendorf tubes at defined time intervals 30 minutes, 1 hour, 2 hour, 4 hour, 8 hour, 24 hour & 48 hour under light ether anaesthesia. The samples were centrifuged at 3500×g to separate plasma and stored at −80° C. until analysis. Plasma 25 μl for Mice were processed as per described in sample preparation.
Standard solutions of the test compound 1 mg/mL solutions were prepared in DMSO and further dilutions were made in methanol. […] To the test compound plasma extraction was carried out using Acetonitrile precipitation. After reconstitution with solvent (50% Acetonitrile in Buffer) samples were analyzed by LCMSMS to get the concentrations to calculate PK Parameters.

The nature of data set [2]: Cyto-toxicity (MTT assay). It counts as cell-based. The procedure: On day 1 calculate the number of cells required for the assay and seed 3×10^4 cells in 200 μl per well. Weigh the compound and dissolve it in DMSO to get 10 mM stock which is further diluted to 3 mM and 1 mM. […] Add DMSO to controls in a way to obtain final concentration of solvent that is not greater than 1%. Incubate for 4 days in 5% CO2 incubator at 37° C. On day 4, 100 μl of medium was removed from each well without disturbing the cells. Add 10 μl of MTT reagent and incubate for 4 hours at 5% CO2 incubator at 37° C. for formation of crystals. Add 200 μl of 0.1N acidic isopropanol to dissolve the crystals and read the plate at 590 nm. The values are mentioned in below Table-3 and Table-3A.
In general terms: Tetrazolium assays rely on reduction of a dye to a coloured formazan, in cell work by metabolically active cells.

In general, Cmax refers to the peak of the concentration-time curve. Take `Cc1cc(C(=O)NC(C)(C)C(=O)N[C@@]23CC[C@]4(C)[C@H](CC[C@@H]5[C@@]6(C)CC[C@H](OC(=O)[C@H]7C[C@@H](C(=O)O)C7(C)C)C(C)(C)[C@@H]6CC[C@]54C)C2=C(C(C)C)C(=O)C3)c(C)o1` [Example 33, (1R,3S)-3-((((3aR,5aR,5bR,7aR,9S,11aR,11bR,13aS)-3a-(2-(2,5-dimethylfuran-3-carboxamido)-2-methylpropanamido)-1-isopropyl-5a,5b,8,8,11a-pentamethyl-2-oxo-3,3a,4,5,5a,5b,6,7,7a,8,9,10,11,11a,11b,12,13,13a-octadecahydro-2H-cyclopenta[a]chrysen-9-yl)oxy)carbonyl)-2,2-dimethylcyclobutane-1-carboxylic acid]: in data set [1], the AUC(0-t) was determined as 231 µg·h/mL and the Cmax stood at 11400 ng/mL.

With `CC(C)C1=C2[C@H]3CC[C@@H]4[C@@]5(C)CC[C@H](OC(=O)[C@H]6C[C@@H](C(=O)O)C6(C)C)C(C)(C)[C@@H]5CC[C@@]4(C)[C@]3(C)CC[C@@]2(NC(=O)C2(NC(=O)c3cccnc3N3CCOCC3)CCC2)CC1=O` [Example 45, (1R,3S)-3-((((3aR,5aR,5bR,7aR,9S,11aR,11bR,13aS)-1-isopropyl-5a,5b,8,8,11a-pentamethyl-3a-(1-(2-morpholinonicotinamido)cyclobutane-1-carboxamido)-2-oxo-3,3a,4,5,5a,5b,6,7,7a,8,9,10,11,11a,11b,12,13,13a-octadecahydro-2H-cyclopenta[a]chrysen-9-yl)oxy)carbonyl)-2,2-dimethylcyclobutane-1-carboxylic acid], in data set [1], the AUC(0-t) is 214 µg·h/mL and the maximum concentration (Cmax) amounted to 21200 ng/mL.

`CC(C)C1=C2[C@H]3CC[C@@H]4[C@@]5(C)CC[C@H](OC(=O)[C@H]6C[C@@H](C(=O)O)C6(C)C)C(C)(C)[C@@H]5CC[C@@]4(C)[C@]3(C)CC[C@@]2(NC(=O)C(C)(C)NC(=O)Cc2ccc(Cl)cc2)CC1=O` [Example 53, (1R,3S)-3-((((3aR,5aR,5bR,7aR,9S,11aR,11bR,13aS)-3a-(2-(2-(4-chlorophenyl)acetamido)-2-methylpropanamido)-1-isopropyl-5a,5b,8,8,11a-pentamethyl-2-oxo-3,3a,4,5,5a,5b,6,7,7a,8,9,10,11,11a,11b,12,13,13a-octadecahydro-2H-cyclopenta[a]chrysen-9-yl)oxy)carbonyl)-2,2-dimethylcyclobutane-1-carboxylic acid]: in data set [1], the AUC(0-t) amounted to 57.8 µg·h/mL and the peak concentration (Cmax) came out at 9750 ng/mL.

`CC(C)C1=C2[C@H]3CC[C@@H]4[C@@]5(C)CC[C@H](OC(=O)[C@H]6C[C@@H](C(=O)O)C6(C)C)C(C)(C)[C@@H]5CC[C@@]4(C)[C@]3(C)CC[C@@]2(NC(=O)C(C)(C)NC(=O)c2cnn3cccnc23)CC1=O` [Example 54, (1R,3S)-3-((((3aR,5aR,5bR,7aR,9S,11aR,11bR,13aS)-1-isopropyl-5a,5b,8,8,11a-pentamethyl-3a-(2-methyl-2-(pyrazolo[1,5-a]pyrimidine-3-carboxamido)propanamido)-2-oxo-3,3a,4,5,5a,5b,6,7,7a,8,9,10,11,11a,11b,12,13,13a-octadecahydro-2H-cyclopenta[a]chrysen-9-yl)oxy)carbonyl)-2,2-dimethylcyclobutane-1-carboxylic acid]: in data set [1], the AUC(0-t) is 402 µg·h/mL and the peak concentration (Cmax) came to 29200 ng/mL.

As for `CC(C)C1=C2[C@H]3CC[C@@H]4[C@@]5(C)CC[C@H](OC(=O)[C@H]6C[C@@H](C(=O)O)C6(C)C)C(C)(C)[C@@H]5CC[C@@]4(C)[C@]3(C)CC[C@@]2(NC(=O)C(C)(C)NCc2ccc(Cl)cc2)CC1=O` [Example 68, (1R,3S)-3-((((3aR,5aR,5bR,7aR,9S,11aR,11bR,13aS)-3a-(2-((4-chlorobenzyl)amino)-2-methylpropanamido)-1-isopropyl-5a,5b,8,8,11a-pentamethyl-2-oxo-3,3a,4,5,5a,5b,6,7,7a,8,9,10,11,11a,11b,12,13,13a-octadecahydro-2H-cyclopenta[a]chrysen-9-yl)oxy)carbonyl)-2,2-dimethylcyclobutane-1-carboxylic acid], in data set [1], the AUC(0-t) was 272 µg·h/mL and the Cmax was determined as 20000 ng/mL.

Take `CC(C)C1=C2[C@H]3CC[C@@H]4[C@@]5(C)CC[C@H](OC(=O)[C@H]6C[C@@H](C(=O)O)C6(C)C)C(C)(C)[C@@H]5CC[C@@]4(C)[C@]3(C)CC[C@@]2(NC(=O)C(C)(C)NC(=O)c2ccc(Cl)cn2)CC1=O` [Example 70, (1R,3S)-3-((((3aR,5aR,5bR,7aR,9S,11aR,11bR,13aS)-3a-(2-(5-chloropicolinamido)-2-methylpropanamido)-1-isopropyl-5a,5b,8,8,11a-pentamethyl-2-oxo-3,3a,4,5,5a,5b,6,7,7a,8,9,10,11,11a,11b,12,13,13a-octadecahydro-2H-cyclopenta[a]chrysen-9-yl)oxy)carbonyl)-2,2-dimethylcyclobutane-1-carboxylic acid]: in data set [1], the AUC(0-t) amounted to 881 µg·h/mL and the Cmax stood at 36600 ng/mL.

Usually viability stands for the share of living cells, or the viability signal relative to a control. The low end stands for more harm to the cells, the high end for less harm to the cells. In data set [2], `CC(C)C1=C2[C@H]3CC[C@@H]4[C@@]5(C)CC[C@H](OC(=O)[C@H]6C[C@@H](C(=O)O)C6(C)C)C(C)(C)[C@@H]5CC[C@@]4(C)[C@]3(C)CC[C@@]2(NC(=O)C(C)(C)NCCN(C)C)CC1=O` [Example 73, (1R,3S)-3-((((3aR,5aR,5bR,7aR,9S,11aR,11bR,13aS)-3a-(2-((2-(dimethylamino)ethyl)amino)-2-methylpropanamido)-1-isopropyl-5a,5b,8,8,11a-pentamethyl-2-oxo-3,3a,4,5,5a,5b,6,7,7a,8,9,10,11,11a,11b,12,13,13a-octadecahydro-2H-cyclopenta[a]chrysen-9-yl)oxy)carbonyl)-2,2-dimethylcyclobutane-1-carboxylic acid] displayed a viability at 4 days, 0.01 µM of 52%; a viability at 4 days, 0.1 µM of 11%; a viability at 4 days, 1 µM of 9%.

In data set [2], `CC(C)C1=C2[C@H]3CC[C@@H]4[C@@]5(C)CC[C@H](OC(=O)[C@H]6C[C@@H](C(=O)O)C6(C)C)C(C)(C)[C@@H]5CC[C@@]4(C)[C@]3(C)CC[C@@]2(NC(=O)C(C)(C)NC(=O)OC(C)(C)C)CC1=O` [Example 75, (1R,3S)-3-((((3aR,5aR,5bR,7aR,9S,11aR,11bR,13aS)-3a-(2-((tert-butoxycarbonyl)amino)-2-methylpropanamido)-1-isopropyl-5a,5b,8,8,11a-pentamethyl-2-oxo-3,3a,4,5,5a,5b,6,7,7a,8,9,10,11,11a,11b,12,13,13a-octadecahydro-2H-cyclopenta[a]chrysen-9-yl)oxy)carbonyl)-2,2-dimethylcyclobutane-1-carboxylic acid] gave a viability at 4 days, 0.01 µM of 63%; a viability at 4 days, 0.1 µM of 17%; a viability at 4 days, 1 µM of 2%.
